The numbers were not newly measured in publication PMC9311539, “Antibacterial Activity against Clinical Isolates and In Vivo Efficacy of Coralmycins” (Antibiotics, 2022), which cites them from elsewhere.

The subject of data set [1] is E. coli ATCC 25922. Further details: method as in PMID 34123255. The following applies: cited from earlier work.
Details of data set [2]: method as in PMID 34123255. As to conditions: cited from earlier work.
The test system of data set [3] is E. coli ATCC 25922. More on the design: method as in PMID 34123255. As to conditions: 37.5 mg/kg/day; cited from earlier work.

Structures are written as SMILES. Converted amounts (≈) assume the structure as drawn. Read-outs that look alike come from different tables or passages of the source.

The term MIC denotes the smallest concentration in the dilution series that meets the test's criterion for growth inhibition. What is called AUC is concentration integrated over time. The Vdss is a proportionality between amount in the body and measured concentration, not a real space. A word on the bioavailability: it is the share of a dose that reaches the circulation, judged against a reference dose that is usually intravenous. Broadly, the Cmax is the highest concentration seen after dosing. The term Tmax denotes the time from dosing to the highest level. Take `CC(C)Oc1c(NC(=O)c2ccc(NC(=O)C(CC(N)=O)NC(=O)c3ccc(NC(=O)c4ccc(C#N)cc4)cc3)cc2)ccc(C(=O)Nc2ccc(C(=O)O)cc2)c1O` (centres unmarked) [CN-DM-861]: the MIC in the data set with E. coli ATCC 25922 [1] is 0.02 µg/mL (≈ 0.0246 µM). The “detection in tissues (thigh, kidney, lung)” value in data set [2] (after s.c. administration) was “well detected”. Further, in data set [2] (i.v. 5 mg/kg), the AUC result is on record as “approximately 2 μg·h/mL”, the T1/2 result is “approximately 1 h” and the Vdss was 3.5 L/kg. The bioavailability in data set [2] (reported) is listed as 25%. The AUC/MIC ratio in data set [2] (s.c. 5 mg/kg, MIC against E. coli ATCC 25922) is 159.5. Besides, in data set [2] (s.c. 5 mg/kg), the AUC is given as 517 ng·h/mL, the Cmax was 128 ng/mL and the Tmax was 1.7 h. Also, in the data set on E. coli ATCC 25922 [3], the “in vivo effect in three mouse models” value is on record as “potent bactericidal effects”.
